Experimental data as given in US5614548A, “Quaternary amine containing ether or ester lipid derivatives and therapeutic compositions” (priority 1994, dated 1997).
Where “and” joins values, the source holds several entries; their conditions need not be identical. Equal values may be shown once. Read-outs that look alike come from different tables or passages of the source. Values belong to the molecule of their own block, whether it stands above or below them.

Experiments:
KB cells = assay: Cytostatic activity on KB cells; type: cell-based; settings: Homo sapiens; KB cells, after controls doubled three times; read-out: IC50 KB
Description: (§1) All cells were grown in Eagle's minimum essential medium supplemented with 10% fetal bovine serum with the exception of HL-60 and K562-4 cells which were grown in RPMI 1640 medium supplemented with 10% fetal bovine serum. The KB and MH1 C1 cells, from a human nasopharyngeal carcinoma and rat hepatoma, respectively, were from American Type Culture Collection. The ChaGo cells, a human lung carcinoma, was generously provided by Dr. A. H. Tashjian. The human promyeloblastic leukemia cells, K562-4 were kindly supplied by Dr. Bismarck Lozzio. HL-60 cells, a human promyelocytic leukemia, and P388 cells, a mouse leukemia, were obtained from Dr. Y.-C. Cheng. The 77 cells were put into culture by us by excising the 7777, Morris hepatoma from a rat graciously supplied by the late Dr. H. P. Morris.
(§2) Cells were transferred or removed from monolayers for counting after a one or two minute incubation with 0.02% sodium ethylenediamine tetraacetate in phosphate-buffered saline to dislodge the cells. Flasks were seeded at a density of 1×10^3 cells per cm^2 or 2×10^4 per milliliter for suspension cultures. The HL-60 and K562-4 suspension cultures were used about 24 hours after seeding. The compounds to be tested were diluted to various concentrations and added to the monolayer cultures. All of the test compounds were dissolved in 10% dimethyl sulfoxide (DMSO) at concentrations that would give a final DMSO concentration of 0.1%. Control flasks contained 0.1% DMSO. Control cell replication was followed until approximately three doublings had occurred, and then all of the treated cells were counted.
(§3) The KB cells represented cells with low alkyl cleavage activity (less than the detectable level of 0.1-0.2 units per milligram protein by our assay procedure) and the 77 cells represented cells similar to normal cells with relatively high alkyl cleavage activity (1.6 units per milligram of protein). Our value for the cleavage activity of cultured 77 cells agrees well with the value of 1.4 units per milligram of protein reported by Soodsma et al, Cancer Res. 30, 309 (1970), for freshly excised 7777 Morris hepatoma tissue. In further confirmation of our assay procedure, we obtained a value of 12.6±4.1 units per milligram of protein in excised rat liver compared to 7.3 units per milligram of protein in rat liver measured by Soodsma et al.

MH1 C1 cells = assay: Cytostatic activity on MH1 C1 cells; type: cell-based, rat
Description: as §1, §2

K562-4 cells = assay: Cytostatic activity on K562-4 cells; type: cell-based; settings: Homo sapiens; K562-4 (printed X562-4)
Description: as §1, §2

77 cells = assay: Cytostatic activity on 77 cells; type: cell-based, rat; settings: for IC50: 77 cells, after controls doubled three times; for 77/KB: ratio of IC50 values ± standard error of the quotient
Description: as §1, §2, §3

ChaGo cells = assay: Cytostatic activity on ChaGo cells; type: cell-based, human
Description: as §1, §2

reverse transcriptase = assay: Reverse transcriptase activity in HIV-1 infected CEM-SS cells; type: cell-based, human immunodeficiency virus type 1 (HIV-1); settings: for reverse transcriptase activity: in words; for activity at 0.2 µM / activity at 0.4 µM / activity at 2 µM: Human immunodeficiency virus 1, CEM-SS, read-out: RT Activity, % of Control
Description: (§4) By way of further background, in our assay HIV-1 syncytial plaques are seen as large, multicellular foci (10 to 25 nuclei/syncytium) that appear either brown and granular or clear. Since the number of HIV-1 syncytial plaques correlates with reverse transcriptase (RT) and p24 core antigen activity in the HIV-1 infected cell overlay fluids, the syncytial plaque assay can be used to quantify the amount of infectious virus. Reverse transcriptase activity was assayed according to a described procedure (B. J. Poeisz et al., Proc. Natl. Acad. Sci. (U.S.A.) […], 7415 (1980)). The activity of p24 core antigen induced by HIV-1 infection of CEM-SS cells was measured spectrophotometrically using the commercial Abbott EIA.
(§5) In brief, CEM-SS cells were infected with HIV-1. At various times after infection (3, 6, 8, 10, 13 days) the overlay fluids were replaced with fresh medium. Overlay fluids replaced on days 8, 10 and 13 were saved at -80° C. to measure HIV-1 plaque forming units according to our described protocol above and RT activity (described by Poiesz et al., Proc. Natl. Acad. Sci. U.S.A. 77, 7415 (1980). Results are given in Table 8 below.

HIV-1 [1] = assay: Infectious HIV-1 multiplication (plaque forming units); type: cell-based, human immunodeficiency virus type 1 (HIV-1); settings: for infectious virus production: in words; for activity at 0.2 µM / activity at 0.4 µM / activity at 2 µM: read-out: Plaque Forming Units, % of Control
Description: as §5

HIV-1 [2] = assay: HIV-1 plaque assay, inhibitor added 30 minutes before infection; type: cell-based, human immunodeficiency virus type 1 (HIV-1)
Source text: (§6) Dextran sulfate was used as a positive control. […] Plaques were counted at five days after infection.
as §4
(§7) Compound E inhibited HIV-1 plaque count 43%, 83%, and 91% at concentrations of 0.2, 0.4, and 2.0 μM, respectively, compared to untreated controls. […] In other experiments addition of 0.2, 0.4 and 2.0 μM Compound E starting sixty minutes after HIV-1 infection inhibited HIV-1 plaque formation 28%, 59% and 97% respectively, compared to untreated controls.

CEM-SS cells = assay: CEM-SS cell growth (3H-TdR uptake); type: cell-based; settings: Homo sapiens, 48 hours, N = 3, read-out: Inhibitory Concentration50 CEM-SS Cell Growth
Source text: (§8) Next investigated were the correlations of EL analog structure with anti-HIV-l and anti-cell growth. The experimental method used six serial two-fold dilutions of EL that spanned concentrations above and below a concentration that inhibits HIV-1 plaque count, cell growth (^3 H-TdR uptake into cell DNA) or in vitro PKC activity by 50% (inhibitory concentration50 =IC50) compared to an appropriate mock treated control. Table 7 summarizes data on IC50 of phosphorus and non-phosphorus compounds for HIV-1 plaque formation and cell growth.
formation are x ± one SD., N = 4. CEMSS cell growth is measured in
suspension cultures by treating the cells with compound for 48 hours at
37° C. and then adding 1 μCi of ^3 HTdR (S.A. = 20 Ci/mmole
for 8 hours at 37° C. to measure DNA synthesis. IC50 values
for CEMSS growth are x of a representative experiment, N = 3.

[3] = system: HL60 human leukemia cell line; assay: HL60 cell growth inhibition (trypan blue, 48 h); type: cell-based; settings: for IC50: HL60, 48 hours
Description: A number of the compounds disclosed herein have been tested against the HL60 human leukemia cell line to assess their cytotoxic potential. These analogs were investigated in parallel with ET-18-OMe which was used as the reference compound. The methodologies used in this investigation were the same as described in A. Noseda, M. Berens, C. Piantadosi, and E. J. Modest, Lipids 22, 878-883, 1987. In brief, HL60 cells at a concentration of […] were incubated in wells with one milliliter medium with the experimental drug in parallel with the same concentration of cells with ET-18-OMe (standard) or EtOH (control). After 48 hours of incubation the cells were counted using the trypan blue dye exclusion technique to determine the effect of the drug on cell growth. The experimental drug and ET-18-OMe were tested at the same concentrations, e.g., 10, 5, 2.5 and 1.25 μM.

HIV-1 [4] = assay: HIV-1 plaque assay, inhibitor added 60 minutes after infection; type: cell-based, human immunodeficiency virus type 1 (HIV-1)
Source text: as §6, §4, §7, §8
^1 Serial 2fold dilutions of compounds are used. HIV1 plaque formatio
is measured in CEMSS cell monolayers by having compound present starting
sixty minutes after virus infection. IC50 values for HIV1 plaque
formation are x ± one SD., N = 4. CEMSS cell growth is measured in […]

[5] = Human immunodeficiency virus 1, 192 h, day 8
[6] = Human immunodeficiency virus 1, 240 h, day 10
[7] = Human immunodeficiency virus 1, 312 h, day 13

IC50 (KB cells): 700 ± 80 nM | IC50 (MH1 C1 cells; Rattus norvegicus, MH1C1, MH1 C1): 2900 nM | IC50 (K562-4 cells): 1400 nM | IC50 (77 cells): 2500 ± 900 nM
Compound: CCCCCCCCCCCCCCCCCCOCCC[N+](C)(C)CCO.[I-] [XIII, 3-octadecyloxy-N,N-dimethyl-N-β-hydroxyethyl-1-propyl ammonium iodide]
sensitivity of MH1 C1 cells relative to 77 cells (MH1 C1 cells; MH1 C1 vs 77 cells): two to three times less sensitive to growth inhibition than 77 cells | 77/KB (77 cells): 4.3 ± 1.60

Compound: CCCCCCCCCCCCCCCCOCC(C[N+](C)(C)CCO)OC(C)=O.[I-] (racemic) [XI, (±)-3-hexadecyloxy-2-acetoxy-N,N-dimethyl-N-β-hydroxyethyl-1-propyl ammonium iodide]
IC50 (KB cells): 430 ± 50 nM | IC50 (ChaGo cells; Homo sapiens): 1200 nM | IC50 (K562-4 cells): 3500 nM | IC50 (77 cells): 1350 ± 640 nM | 77/KB (77 cells): 3.1 ± 1.51

IC50 (KB cells): 350 ± 50 nM | IC50 (ChaGo cells): 2800 nM | IC50 (ChaGo cells; Homo sapiens): 1700 nM | IC50 (K562-4 cells): 2500 nM | IC50 (77 cells): 1330 ± 400 nM
Compound: CCCCCCCCCCCCCCCCCCOCC(O)C[N+](C)(C)CCO.[I-] (racemic) [X, (±)-3-octadecyloxy-2-hydroxy-N,N-dimethyl-N-β-hydroxyethyl-1-propyl ammonium iodide]
77/KB (77 cells): 2.9 ± 0.96

Compound: CCCCCCCCCCCCCCCCCCOCC(COP(=O)([O-])OCC[N+](C)(C)C)OC (racemic) [ET-18-OMe, (±)-1-O-octadecyl-2-O-methylglycero-3-phosphocholine, reference compound]
reverse transcriptase activity (reverse transcriptase; 13 days): reverse transcriptase activity increases | activity at 0.2 µM (reverse transcriptase; 192 h, day 8): 54% | activity at 0.4 µM (reverse transcriptase; 192 h, day 8): 15% | activity at 2 µM (reverse transcriptase; 192 h, day 8): 6% | activity at 0.2 µM (reverse transcriptase; 240 h, day 10): 192% | activity at 0.4 µM (reverse transcriptase; 240 h, day 10): 90% | activity at 2 µM (reverse transcriptase; 240 h, day 10): 6% | activity at 0.2 µM (reverse transcriptase; 312 h, day 13): 94% | activity at 0.4 µM (reverse transcriptase; 312 h, day 13): 161% | activity at 2 µM (reverse transcriptase; 312 h, day 13): 174% | reverse transcriptase activity (reverse transcriptase; between 8 and 10 days): markedly inhibit infectious virus production and reverse transcriptase activity in a dose-dependent manner | infectious virus production (HIV-1 [1]; 13 days): infectious virus production is still inhibited | activity at 0.2 µM (HIV-1 [1]; [5]): 395% | activity at 0.4 µM (HIV-1 [1]; [5]): 25% | activity at 2 µM (HIV-1 [1]; [5]): 0% | activity at 0.2 µM (HIV-1 [1]; [6]): 287% | activity at 0.4 µM (HIV-1 [1]; [6]): 30% | activity at 2 µM (HIV-1 [1]; [6]): 33% | activity at 0.2 µM (HIV-1 [1]; [7]): 89% | activity at 0.4 µM (HIV-1 [1]; [7]): 35% | activity at 2 µM (HIV-1 [1]; [7]): 30% | infectious virus production (HIV-1 [1]; between 8 and 10 days): markedly inhibit infectious virus production | inhibition at 0.2 µM (HIV-1 [2]; Human immunodeficiency virus 1, 0.2 μM, 30 minutes before infection, Table 6): 0% | inhibition at 0.4 µM (HIV-1 [2]; Human immunodeficiency virus 1, 0.4 μM, 30 minutes before infection, Table 6, read-out: Inhibition (%)): 9% | inhibition at 2 µM (HIV-1 [2]; Human immunodeficiency virus 1, 2.0 μM, 30 minutes before infection, Table 6): 45% | antiviral activity (HIV-1 plaque formation) (HIV-1 [2]; added before or after infection, in words): antiviral activity | IC50 (CEM-SS cells): 4400 nM | IC50 ([3]; ET-18-OMe reference run in parallel with the analog of the line, 2880 min, read-out: ID50, ET-18-OMe): 1900 nM and 2300 nM and 2200 nM | cytotoxic activity against HL60 ([3]; HL60, in words): shows an activity that is consistent with previous reports against the cell line tested | IC50 ([3]; Homo sapiens, HL-60, 48 h, ET-18-OMe reference run in parallel with the analog of the line, read-out: ID50, ET-18-OMe): 1700 nM | IC50 ([3]; Homo sapiens, HL-60, 48 h, read-out: ID50 (the source's name)): 2500 nM | anti-HIV-1 activity (HIV-1 [4]; HIV-1 plaque formation, in words): potent anti-HIV activity | inhibition at 2 µM (HIV-1 [4]; Human immunodeficiency virus 1, 1 h): 64% | inhibition at 0.2 µM (HIV-1 [4]; Human immunodeficiency virus 1, 1 h, 0.2 μM, 60 minutes after infection): 0% | inhibition at 0.4 µM (HIV-1 [4]; Human immunodeficiency virus 1, 1 h, 0.4 μM, 60 minutes after infection): 0% | IC50 (HIV-1 [4]; Human immunodeficiency virus 1, CEM-SS monolayers, compound from sixty minutes after infection, N = 4, read-out: Inhibitory Concentration50 HIV-1 Plaque Formation): 1400 ± 450 nM
